Measurements as given in patent publication US20250320213A1, “Nitrogen-Containing Heterocyclic Compounds” (Pfizer Inc., priority 2024, published 2025).

Columns and labels:
STAT6 = biological target: T1, STAT6 (Homo sapiens, UniProt P42226); test: STAT6 Reporter Luciferase Assay (IL-13 stimulated HaCaT keratinocyte NanoLuc reporter cells); assay type: cell-based; conditions: IL-13 stimulated HaCaT STAT6 NanoLuc reporter cells; read-out: Reporter EC50
T1 construct: stably transfected HaCaT keratinocyte cell line, which expresses NanoLuc luciferase reporter gene under the transcriptional control of the STAT6 responsive promoter; endogenous in cells; host or cells: HaCaT keratinocyte reporter cell line (stably transfected with a NanoLuc reporter)
T1 sequence (P42226 1-847): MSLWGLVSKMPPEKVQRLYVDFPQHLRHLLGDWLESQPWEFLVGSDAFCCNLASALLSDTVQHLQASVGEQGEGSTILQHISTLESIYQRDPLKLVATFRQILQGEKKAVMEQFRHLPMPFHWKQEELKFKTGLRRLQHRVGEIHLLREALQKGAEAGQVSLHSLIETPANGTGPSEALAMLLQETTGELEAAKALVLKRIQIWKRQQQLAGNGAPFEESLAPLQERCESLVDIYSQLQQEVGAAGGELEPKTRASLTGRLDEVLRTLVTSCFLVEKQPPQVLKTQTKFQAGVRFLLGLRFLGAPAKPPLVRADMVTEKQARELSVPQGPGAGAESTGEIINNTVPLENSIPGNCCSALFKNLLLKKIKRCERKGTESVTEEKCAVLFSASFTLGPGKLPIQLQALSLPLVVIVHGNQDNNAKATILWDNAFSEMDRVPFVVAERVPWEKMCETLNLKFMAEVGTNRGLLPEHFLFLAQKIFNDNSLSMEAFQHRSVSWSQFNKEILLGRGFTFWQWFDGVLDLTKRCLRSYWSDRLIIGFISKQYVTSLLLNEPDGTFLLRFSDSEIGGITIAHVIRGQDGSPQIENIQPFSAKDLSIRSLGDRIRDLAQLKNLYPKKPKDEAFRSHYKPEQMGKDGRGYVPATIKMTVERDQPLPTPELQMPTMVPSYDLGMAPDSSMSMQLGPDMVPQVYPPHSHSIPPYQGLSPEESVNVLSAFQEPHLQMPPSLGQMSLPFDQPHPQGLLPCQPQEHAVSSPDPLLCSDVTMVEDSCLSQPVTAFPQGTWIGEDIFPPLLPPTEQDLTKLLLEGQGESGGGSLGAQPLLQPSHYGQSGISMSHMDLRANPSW
Procedure, shortened: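 Stably transfected HaCaT cells carrying NanoLuc under the STAT6-responsive IL-13Ra2 promoter were pre-treated with compound (11-point, 4-fold series, duplicate) for 2 h at 37 °C, then stimulated with 0.12 nM IL-13 for 4 h. Nano-Glo luminescence was read after 15 min.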

[1] = system: CCL17 secretion in peripheral human whole blood; test: Human Whole Blood (HWB) CCL17 TR-FRET Assay (IL-13 stimulated CCL17 secretion); assay type: cell-based; conditions: human whole blood, IL-13 stimulated
Procedure, shortened: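 Heparinized human whole blood was preincubated with compound (11-point, 3-fold series) for 2 h at 37°C, then stimulated with IL-13 (10 ng/mL final) for 48 h. Serum CCL17 was measured by TR-FRET sandwich immunoassay (665/615 nm ratio) after 16 h at room temperature, giving IC50.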

EC50 (STAT6) | IC50 ([1]; Homo sapiens, 48 h) | Structure (SMILES) | IC50 ([1]; 48 hours)
24 nM | 83 nM | CC(C)n1nc(C(=O)NCc2ccc(NC(=O)N3CC(C)(O)C3)cc2)c2c1CCN(c1ccc(C(=O)N(C)C)cn1)C2 [Example 185, 5-(5-(dimethylcarbamoyl)pyridin-2-yl)-N-(4-(3-hydroxy-3-methylazetidine-1-carboxamido)benzyl)-1-isopropyl-4,5,6,7-tetrahydro-1H-pyrazolo[4,3-c]pyridine-3-carboxamide] | 
15 nM | 41 nM | CC(C)n1nc(C(=O)NCc2ccc(NC(=O)N(C)[C@H]3CCOC3)cc2)c2c1CCN(c1ccc(C(=O)N(C)C)cn1)C2 [Example 187, (S)-5-(5-(dimethylcarbamoyl)pyridin-2-yl)-1-isopropyl-N-(4-(3-methyl-3-(tetrahydrofuran-3-yl)ureido)benzyl)-4,5,6,7-tetrahydro-1H-pyrazolo[4,3-c]pyridine-3-carboxamide] | 
11 nM | 69 nM | COC1CN(C(=O)Nc2ccc(CNC(=O)c3nn(C(C)C)c4c3CN(c3ccc(C(=O)N(C)C)cn3)CC4)cc2)C1 [Example 188, 5-(5-(dimethylcarbamoyl)pyridin-2-yl)-1-isopropyl-N-(4-(3-methoxyazetidine-1-carboxamido)benzyl)-4,5,6,7-tetrahydro-1H-pyrazolo[4,3-c]pyridine-3-carboxamide] | 
10 nM | 95 nM | CC(C)n1nc(C(=O)NCc2ccc(NC(=O)N(C)CC(F)F)cc2)c2c1CCN(c1ccc(C(=O)N(C)C)cn1)C2 [Example 189, N-(4-(3-(2,2-difluoroethyl)-3-methylureido)benzyl)-5-(5-(dimethylcarbamoyl)pyridin-2-yl)-1-isopropyl-4,5,6,7-tetrahydro-1H-pyrazolo[4,3-c]pyridine-3-carboxamide] | 
2 nM | 9 nM | CCn1nc(C(=O)NCc2ccc(NC(=O)N(C)C)cc2)c2c1C(C)(C)CN(c1ccc(C(=O)N(C)C)cn1)C2 [Example 238, 5-(5-(dimethylcarbamoyl)pyridin-2-yl)-N-(4-(3,3-dimethylureido)benzyl)-1-ethyl-7,7-dimethyl-4,5,6,7-tetrahydro-1H-pyrazolo[4,3-c]pyridine-3-carboxamide] | 
1 nM | 9 nM | CC(C)n1nc(C(=O)NCc2ccc(NC(=O)N(C)C)cc2)c2c1C(C)(C)CN(c1ccc(C(=O)N(C)C)cn1)C2 [Example 247, 5-(5-(dimethylcarbamoyl)pyridin-2-yl)-N-(4-(3,3-dimethylureido)benzyl)-1-isopropyl-7,7-dimethyl-4,5,6,7-tetrahydro-1H-pyrazolo[4,3-c]pyridine-3-carboxamide] | 
35 nM | 131 nM | CN(C)C(=O)Nc1ccc(CNC(=O)c2nn(CC3CC(F)(F)C3)c3c2CN(c2ccc(C(=O)N(C)C)cn2)CC3)cc1 [Example 248, 1-((3,3-difluorocyclobutyl)methyl)-5-(5-(dimethylcarbamoyl)pyridin-2-yl)-N-(4-(3,3-dimethylureido)benzyl)-4,5,6,7-tetrahydro-1H-pyrazolo[4,3-c]pyridine-3-carboxamide] | 
7 nM | 126 nM | CN(C)C(=O)Nc1ccc(CNC(=O)c2nn(CC(C)(C)C)c3c2CN(c2ccc(C(=O)N(C)C)cn2)CC3)cc1 [Example 253, 5-(5-(dimethylcarbamoyl)pyridin-2-yl)-N-(4-(3,3-dimethylureido)benzyl)-1-neopentyl-4,5,6,7-tetrahydro-1H-pyrazolo[4,3-c]pyridine-3-carboxamide] | 
3570 nM | > 30000 nM | CCC(C)(C)n1nc(C(=O)NCc2ccc(NC(=O)N(C)C)cc2)c2c1CCN(c1ccc(C(=O)N(C)C)cn1)C2 [Example 261, 5-(5-(dimethylcarbamoyl)pyridin-2-yl)-N-(4-(3,3-dimethylureido)benzyl)-1-(tert-pentyl)-4,5,6,7-tetrahydro-1H-pyrazolo[4,3-c]pyridine-3-carboxamide] | 
9 nM | 130 nM | CC(C1CCC1)n1nc(C(=O)NCc2ccc(NC(=O)N(C)C)cc2)c2c1CCN(c1ccc(C(=O)N(C)C)cn1)C2 (centres unmarked) [Example 263, 1-(1-cyclobutylethyl)-5-(5-(dimethylcarbamoyl)pyridin-2-yl)-N-(4-(3,3-dimethylureido)benzyl)-4,5,6,7-tetrahydro-1H-pyrazolo[4,3-c]pyridine-3-carboxamide] | 
3 nM | 45 nM | CC(C)n1nc(C(=O)NCc2ccc(NC(=O)N(C)C)cc2)c2c1C1(CC1)CN(c1ccc(C(=O)N(C)C)cn1)C2 [Example 266, 5′-(5-(dimethylcarbamoyl)pyridin-2-yl)-N-(4-(3,3-dimethylureido)benzyl)-1′-isopropyl-1′,4′,5′,6′-tetrahydrospiro[cyclopropane-1,7′-pyrazolo[4,3-c]pyridine]-3′-carboxamide] | 

Further lines, the compound ahead of its results:

Structure (SMILES) | EC50 (STAT6) | IC50 ([1]; Homo sapiens, 48 h) | IC50 ([1]; 48 hours)
COc1nc(N2CCc3c(c(C(=O)NCc4ccc(NC(=O)N(C)C)cc4)nn3C(C)C)C2)ccc1[C@@]1(C)CCCNC1=O [Example 192, (R)-N-(4-(3,3-dimethylureido)benzyl)-1-isopropyl-5-(6-methoxy-5-(3-methyl-2-oxopiperidin-3-yl)pyridin-2-yl)-4,5,6,7-tetrahydro-1H-pyrazolo[4,3-c]pyridine-3-carboxamide] | 1670 nM | 6440 nM | 
CCOC(=O)Nc1ccc(CNC(=O)c2nn(C(C)C)c3c2CN(c2ccc(C(=O)N(C)C)cn2)CC3)cc1 [Example 236, Ethyl (4-((5-(5-(dimethylcarbamoyl)pyridin-2-yl)-1-isopropyl-4,5,6,7-tetrahydro-1H-pyrazolo[4,3-c]pyridine-3-carboxamido)methyl)phenyl)carbamate] | 17 nM |  | 254 nM
CN(C)C(=O)Nc1ccc(CN2CCCn3nc4c(c3C2=O)CN(c2ccc(C(=O)N(C)C)cn2)CC4)cc1 [Example 252, 6-(10-(4-(3,3-Dimethylureido)benzyl)-11-oxo-1,3,4,7,8,9,10,11-octahydro-2H-pyrido[4′,3′:3,4]pyrazolo[1,5-a][1,4]diazepin-2-yl)-N,N-dimethylnicotinamide] | 385 nM | 1130 nM | 
CN(C)C(=O)Nc1ccc(CNC(=O)c2nn(C3CCCOC3)c3c2CN(c2ccc(C(=O)N(C)C)cn2)CC3)cc1 (centres unmarked) [Example 254, 5-(5-(dimethylcarbamoyl)pyridin-2-yl)-N-(4-(3,3-dimethylureido)benzyl)-1-(tetrahydro-2H-pyran-3-yl)-4,5,6,7-tetrahydro-1H-pyrazolo[4,3-c]pyridine-3-carboxamide] | 22 nM | 180 nM | 
CN(C)C(=O)Nc1ccc(CN2CCn3nc4c(c3C2=O)CN(c2ccc(C(=O)N(C)C)cn2)CC4)cc1 [Example 256, 6-(9-(4-(3,3-dimethylureido)benzyl)-10-oxo-3,4,7,8,9,10-hexahydropyrido[4′,3′:3,4]pyrazolo[1,5-a]pyrazin-2(1H)-yl)-N,N-dimethylnicotinamide] | 28 nM | 190 nM | 
CN(C)C(=O)Nc1ccc(CNC(=O)c2nn(CC3CCC3)c3c2CN(c2ccc(C(=O)N(C)C)cn2)CC3)cc1 [Example 257, 1-(cyclobutylmethyl)-5-(5-(dimethylcarbamoyl)pyridin-2-yl)-N-(4-(3,3-dimethylureido)benzyl)-4,5,6,7-tetrahydro-1H-pyrazolo[4,3-c]pyridine-3-carboxamide] | 15 nM | 272 nM | 
C[C@H]1Cc2c(c(C(=O)NCc3ccc(NC(=O)N(C)C)cc3)nn2C)CN1c1ccc(-c2nccn2C)cn1 [Example 259, (S)-N-(4-(3,3-dimethylureido)benzyl)-1,6-dimethyl-5-(5-(1-methyl-1H-imidazol-2-yl)pyridin-2-yl)-4,5,6,7-tetrahydro-1H-pyrazolo[4,3-c]pyridine-3-carboxamide] | 2 nM | 30 nM | 
CN(C)C(=O)Nc1ccc(CNC(=O)c2nn(C3CCCC3)c3c2CN(c2ccc(C(=O)N(C)C)cn2)CC3)cc1 [Example 264, 1-cyclopentyl-5-(5-(dimethylcarbamoyl)pyridin-2-yl)-N-(4-(3,3-dimethylureido)benzyl)-4,5,6,7-tetrahydro-1H-pyrazolo[4,3-c]pyridine-3-carboxamide] | 7 nM | 131 nM | 
